Results on two compounds are retold here after US9040713B2, “Methods of managing blood sugar levels and compositions related thereto” (EMORY UNIVERSITY, priority 2010, dated 2015).

Each structure is given as a SMILES string.

Assay [1] concerns the target T1, GST-IRTK (Homo sapiens, UniProt P06213).
T1 construct: GST-tagged IRTK (GST-IRTK, a.a. 1011-1382); purchased Invitrogen
Description: IR in vitro kinase assay (histone H2B phosphorylation). Type of assay: biochemical. Particulars: different concentrations of compound. On the procedure:
Parental CHO cells were used as a negative control (bottom panel). The fluorescence-labeled cells were analyzed on flow cytometry. (B) DDN binds to IRTK. UV-visible spectra were scanned from 200 to 800 nm for IRTK fragment in the presence of DDN or its analogue. When DDN binds to IRTK, it elicits the absorption alteration at 560 and 602 nm. (C) DDN protects IRTK from proteolysis. GST-IRTK was subjected to limited trypsin digestion in the presence of DDN (50 μM), ATP-γ-S (5 μM) or both. The reaction mixture was resolved by SDS-PAGE, followed by silver staining (D) DDN increases IRTK activity in vitro.
(§1) Parental CHO cells were used as a negative control (Bottom panel). The fluorescence-labeled cells were analyzed on flow cytometry. (B) 4524-E7 protects IRTK from proteolysis. GST-IRTK was subjected to limited trypsin or chymotrypsin digestion in the presence of 4524-E7 (50 μM), ATPyS (5 μM) or both at 37° C. for 5 min. The reaction mixture was resolved by SDS-PAGE, followed by silver staining Cleaved fragments were asterisked. (C) 4524-E7 increases IRTK activity in vitro. Recombinant GST-IRTK, GST-IGFRTK, and GST-EGFRTK were incubated with different concentrations of 4524-E7 or 10 μM 2—NH2-NQ and the kinase activity was examined by monitoring the phosphorylation of histone H2B. (E) In vitro kinase activity of various IRTK/IGF-1R kinase hybrids. The GFP-tagged kinases were expressed in HEK293, immunoprecipitated and incubated with different concentrations of 4524-E7 as indicated. […] Expressions of the kinases were also verified (lower panel).
Recombinant GST-IRTK was incubate with 50 mM tris-HCl (pH7.4), 10 mM MgCl2, and 50 μM ATP with different concentration of compound for 15 min at 25° C. Histone H2B (0.35 μg/ml) and [γ32P]ATP (0.25 μCi/ul) were added and the samples were further incubated for 10 min. The sample was separated on a SDS-polyacrylamide gel and autoradiographed.

Assay [2] concerns the target GFP-IRTK R2. In words: In vitro kinase assay of IRTK/IGF-1R kinase hybrids. Type of assay: biochemical, human. Particulars: R2 region of IRTK replaced with IGF-1R. On the procedure: as §1
To test if these regions are the action sites of 4524-E7, several GFP-tagged hybrid kinases were generated with R1 (GFP-IRTK R1), R2 (GFP-IRTK R2) or both (GFP-IRTK R1+R2) regions of IRTK and replaced with the corresponding sequence of IGF-1R. These mutants were then used to perform the in vitro kinase assay in the presence of 4524-E7. […]

Assay [3] deals with T1, GST-IRTK. Description: Partial proteolysis. Type of assay: binding. Particulars: compound 50 μM or ATP-γ-S 5 μM; limited trypsin (or chymotrypsin) digestion. On the procedure: 200 ng GST-IRTK was subjected to limited trypsin digestion in the presence or absence of 50 μM compound with 50 mM tris-HCL (pH8.2) and 20 mM CacCl2. The sample was separated on a SDS-polyacrylamide gel and stained by silver.
Several small molecules bind to the intracellular kinase domain of IR (IRTK) and provoke its activation. DDN might also interact with the IRTK to activate IR. To test this possibility, an UV-absorption spectra analysis was performed using recombinant IRTK. While the GST-tagged IRTK (GST-IRTK, a.a. 1011-1382) had no absorption from 200 nm to 800 nm, addition of DDN, but not its structural related analogue naptho[2,3-d]thiazole-4,9-dione-2-[(4-chlorophenyl)amino] […] Partial proteolysis analysis was also performed to confirm the DDN/IRTK interaction. Recombinant GST-tagged IRTK was incubated with either DMSO or DDN, followed by limited trypsin digestions. In DMSO treatment, GST-IRTK was digested into several smaller fragments of various molecular weights. […] Whereas a band of ˜37 kDa presented strongly in the ATP-γ-S incubated IRTK, a band of ˜30 kDa was found in the control samples but attenuated in the ATP-γ-S-treated sample.
To evaluate if 4524-E7 directly binds to the IR kinase domain, a partial proteolysis assay was performed with recombinant IRTK domain using trypsin or chymotrypsin, which was used before to characterize the interaction between IR and its small molecular ligand DAQ B1. Recombinant GST-tagged IRTK with either DMSO, 50 μM 4524-E7 or ATP-γ-S, were incubated and followed by limited trypsin or chymotrypsin digestion. Under DMSO treatment, GST-IRTK was quickly digested by both trypsin and chymotrypsin into several small fragments with various molecular weights (FIG. 10B). […] To test whether 4524-E7 selectively elevates IR kinase activities, an in vitro IR, IGFR, and EGFR kinase assays were performed using histone as the substrate.

The target in assay [4] is IR (Homo sapiens, UniProt P06213). In words: Insulin competition assay (FITC-insulin, flow cytometry). On the set-up: expressed in transfected cells; host or cells: CHO (CHO-IR, gift from Dr. Nicholas Webster, UCSD). It is filed as binding. Particulars: CHO-IR cells. On the procedure:
Cells were washed three times, acquired on a FACScan, and the mean channel fluorescence (MCF) of bell-shaped histograms was analyzed using the CellQuest program.
Cells were washed three times, acquired on a FACScan, and the mean channel fluorescence (MCF) of bell-shaped histograms was analyzed using the FlowJ program.
(Flow cytometry measures light scatter and fluorescence of single cells or particles in a stream.)

T1 sequence (P06213 1011-1382): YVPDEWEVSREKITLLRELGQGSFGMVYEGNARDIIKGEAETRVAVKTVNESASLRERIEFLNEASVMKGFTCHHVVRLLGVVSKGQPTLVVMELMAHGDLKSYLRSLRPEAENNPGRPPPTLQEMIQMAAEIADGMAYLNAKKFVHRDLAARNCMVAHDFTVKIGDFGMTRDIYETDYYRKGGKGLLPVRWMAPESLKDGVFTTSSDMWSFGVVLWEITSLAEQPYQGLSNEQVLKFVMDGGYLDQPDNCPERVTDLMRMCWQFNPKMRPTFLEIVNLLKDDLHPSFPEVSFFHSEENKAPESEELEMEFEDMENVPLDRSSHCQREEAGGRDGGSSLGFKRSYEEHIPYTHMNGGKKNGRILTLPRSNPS
IR, sequence (P06213 763-1382 limits assumed): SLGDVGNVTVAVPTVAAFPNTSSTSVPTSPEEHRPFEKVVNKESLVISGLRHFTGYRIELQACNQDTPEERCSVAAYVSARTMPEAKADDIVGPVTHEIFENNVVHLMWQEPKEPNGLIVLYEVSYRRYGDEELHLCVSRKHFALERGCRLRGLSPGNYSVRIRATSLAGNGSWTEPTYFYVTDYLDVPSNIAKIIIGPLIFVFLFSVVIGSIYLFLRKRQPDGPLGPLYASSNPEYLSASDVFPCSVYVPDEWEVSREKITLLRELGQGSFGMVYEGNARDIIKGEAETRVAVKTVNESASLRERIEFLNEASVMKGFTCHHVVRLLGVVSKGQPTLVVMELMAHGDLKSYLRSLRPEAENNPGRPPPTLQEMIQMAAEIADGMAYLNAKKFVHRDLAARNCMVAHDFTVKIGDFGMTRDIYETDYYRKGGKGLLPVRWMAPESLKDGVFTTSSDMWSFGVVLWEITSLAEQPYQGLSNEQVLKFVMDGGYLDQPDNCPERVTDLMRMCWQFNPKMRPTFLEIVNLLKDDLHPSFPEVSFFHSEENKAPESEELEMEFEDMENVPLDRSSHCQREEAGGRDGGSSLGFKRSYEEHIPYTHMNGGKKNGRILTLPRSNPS
IR, sequence (P06213 28-758 limits assumed): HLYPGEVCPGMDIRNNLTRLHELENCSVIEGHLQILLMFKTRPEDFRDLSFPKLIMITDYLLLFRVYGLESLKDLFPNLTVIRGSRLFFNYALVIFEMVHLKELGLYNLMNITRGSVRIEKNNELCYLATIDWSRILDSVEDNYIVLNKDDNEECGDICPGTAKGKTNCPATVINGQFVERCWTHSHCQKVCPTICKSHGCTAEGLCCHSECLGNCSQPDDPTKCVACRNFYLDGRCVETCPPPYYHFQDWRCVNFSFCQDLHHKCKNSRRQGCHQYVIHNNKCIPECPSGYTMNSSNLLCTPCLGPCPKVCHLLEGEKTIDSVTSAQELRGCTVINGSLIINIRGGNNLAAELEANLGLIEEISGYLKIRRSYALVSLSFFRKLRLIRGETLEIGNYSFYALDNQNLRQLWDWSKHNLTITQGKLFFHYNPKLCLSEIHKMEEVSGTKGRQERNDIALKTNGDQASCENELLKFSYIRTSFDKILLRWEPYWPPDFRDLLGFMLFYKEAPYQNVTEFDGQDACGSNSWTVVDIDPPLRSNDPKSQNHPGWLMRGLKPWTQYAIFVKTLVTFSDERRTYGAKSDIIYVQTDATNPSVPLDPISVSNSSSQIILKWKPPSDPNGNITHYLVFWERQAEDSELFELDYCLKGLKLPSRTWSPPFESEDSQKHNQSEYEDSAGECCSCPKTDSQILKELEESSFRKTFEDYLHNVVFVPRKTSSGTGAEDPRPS

For the compound `O=C1c2ccccc2C(=O)C2SC(Nc3ccc(Cl)cc3)=NC12` (stereo not shown) [4524-E7, 2-((4-chlorophenyl)amino)naphtho[2,3-d]thiazole-4,9(3aH,9aH)-dione], the “IRTK kinase activity (histone H2B phosphorylation)” value in assay [1] is listed as “greatly enhanced”. Besides, in assay [2], the “kinase stimulatory effect on hybrid kinase” value is on record as “abolishes the kinase stimulatory effect”. The “protection of IRTK from proteolysis” value in assay [3] is on record as “more intact IRTK was observed”. In assay [4] (10 nM FITC-insulin, unlabelled insulin 1 μM), the “competition with FITC-insulin for IR binding (shift of fluorescent peak)” value is given as “no significant change of the shifted peak position”.

`CC(=O)Oc1ccc(OC(C)=O)c2c1C(=O)C(Cl)=C(Cl)C2=O` [DDN, 5,8-diacetyloxy-2,3-dichloro-1,4-naphthoquinone]: the “IRTK kinase activity (histone H2B phosphorylation)” value in assay [1] is on record as “activated the recombinant IRTK to phosphorylate histone H2B”. Further, the “protection of IRTK from proteolysis” value in assay [3] is “protected IRTK against trypsin digestion”. For the same compound, the “competition with FITC-insulin for IR binding (shift of fluorescent peak)” value in assay [4] (100 nM FITC-insulin, unlabelled insulin 5 μM) is given as “No significant change of the shifted peak position”.
